Data on one compound can be found in patent US7528175B2, “Method of treating airway diseases with beta-adrenergic inverse agonists” (Inverseon, Inc., priority 2005, dated 2009).

Molecules are shown by their SMILES. “Also recorded” adds a separate entry of the source. Read-outs that look alike come from different tables or passages of the source.

The subject of assay [1] is asthmatic mice. The experiment in a line: Airway resistance (Raw) response to methacholine in murine model of asthma (forced oscillation). Type of assay: in vivo, Balb/cJ mice. On the procedure:
Balb/cJ mice aged 6 weeks (Jackson Animal Laboratory, Bar Harbor, Me.) were housed under specific pathogen-free conditions and fed a chicken ovalbumin-free diet. The Animal Research Ethics Boards of both the University of Houston and the Baylor College of Medicine approved all experiments reported here. […] Mice were sensitized with subcutaneous injection of 25 μg of ovalbumin adsorbed to aluminum hydroxide on protocol days 2, 9, and 16. Subsequently, mice were given 50 μL of saline solution containing 25 μg of ovalbumin intranasally, on a daily basis, from protocol days 23 through 27. A group of ovalbumin-sensitized saline-challenged mice serves as controls for systemic sensitization and respiratory challenges with ovalbumin. Prior to intranasal administrations, mice were sedated with halothane vapor.
To examine the effects of duration of β-adrenergic ligand therapy on the phenotype of the murine model of asthma, the experimental drugs were administered either acutely or chronically to different groups of asthmatic mice.
Asthmatic mice on acute therapy were given a single intravenous bolus infusion of either β-adrenergic drug or normal saline on protocol day 28, 15 minutes before airway responsiveness to methacholine was determined. […] […] […] These concentrations were chosen based on those producing therapeutic effects in mice in previously published studies. The non-asthmatic mice were fed normal chow.
On protocol day 28, mice were anesthetized, tracheotomized, and connected to a computer-controlled small animal ventilator (Flexivent, Scientific Respiratory Equipment, Inc., Montreal, Canada). Airway resistance (Raw) was measured using the forced oscillation technique. The cellular composition of bronchoalveolar lavage fluid (BALF) was also determined.
To induce airway constriction, a solution containing 150 μg/mL of acetyl-α-methylcholine chloride (methacholine) (Sigma Chemical, St. Louis, Mo.) was infused intravenously at constant rates using a syringe infusion pump (Raze Scientific Instruments, Stanford, Conn.). […] Each methacholine dose was administered for 3 to 5 minutes, during which data were sampled at 1-minute intervals and then averaged.
The complex input impedance of the respiratory system was computed and the value of the real part of respiratory system impedance at 19.75 Hz was taken to reflect the magnitude of airway resistance (Raw). To examine the degree of airway responsiveness of each animal, the values for Raw as a function of methacholine doses were plotted. The largest value for Raw achieved in response to methacholine stimulation was referred to as Rawpeak. For mice that achieved a plateau in the methacholine dose-Raw response curve, the ED50 was calculated by linear interpolation using the GraphPad Prism4 (GraphPad Software, Inc.). […] The Bonferroni test was used to examine the statistical differences between experimental groups. The effects of acute drug treatments on baseline respiratory system mechanics were assessed using a two-tailed paired t-test. A value of P<0.05 was considered significant.
For these experiments, salbutamol was used for chronic administration at 0.5 mg/kg/day with a minipump and for acute administration at 0.15 mg/kg by i.v. bolus 15 minutes prior to challenge. Alprenolol was used at a high dose of 7200 ppm in chow or at a low dose of 720 ppm in chow. Carvedilol was used at a high dose of 2400 ppm in chow or at a low dose of 720 ppm in chow.

Assay [2] concerns the target β2-adrenergic receptor (Mus musculus, UniProt P18762). Type of assay: binding, mice. On the procedure:
(§1) β2-adrenergic receptor numbers were measured in asthmatic mice as follows. […] Mice were sacrificed and lung membranes were isolated as follows. Frozen lung tissue was homogenized in an ice-cold buffer containing 0.32 M sucrose and 25 mM Tris (pH 7.4) using a polytron (Pro 200, Pro Scientific, Inc.). The homogenate was centrifuged at 1000×g for 10 min at 4° C. The resulting supernatant was centrifuged at 40,000×g for 20 min at 4° C. The pellet was suspended in an ice-cold 25 mM Tris-HCl buffer (pH 7.4) and centrifuged at 40,000×g for 20 min at 4° C. The final pellet was suspended in 200 μL of 25 mM Tris-HCl (pH 7.4); membrane protein concentration was determined by BCA protein assay kit. […] The incubation was done at 37° C. for 2 h and terminated by rapid vacuum filtration through glass fiber filters. The filters were washed three times with 250 μL of cold wash buffer (25 mM Tris-HCl, pH 7.4) and the radioactivity determined in a counter. […] Receptor densities are expressed as femtomoles of sites per milligram of protein. Bmax is determined by nonlinear regression of the saturation binding curves.

For assay [3], the system named is β2-adrenergic receptor. Type of assay: binding, mice. Particulars: 2 days of administration. On the procedure:
as §1

Assay [4] concerns asthmatic mice. Nature of the assay: Airway hyperresponsiveness, combination of carvedilol and salbutamol vs carvedilol monotherapy. The format is in vivo, Balb/cJ mice. The following applies: 28 days treatment; highest dose of methacholine. On the procedure:
Mice (Balb/cJ) aged 6 weeks were housed under specific pathogen-free conditions and fed a chicken ovalbumin-free diet. Mice were systemically sensitized with ovalbumin adsorbed to aluminum hydroxide. Mice were treated as follows: CAR/SAL 28D=for 28 days mice (n=6-12) were administered carvedilol (2400 ppm in animal chow) and salbutamol (subcutaneous delivery of 0.5 mg/kg/day in an Alzet #2400 osmotic minipump); NTX S/C=mice (n=6-12) no drug treatment for 28 days; CTRL=mice (n=6-12) no drug treatment for 28 days, not subsequently challenged; CARHD 28D=for 28 days mice (n=6-12) were administered carvedilol only (2400 ppm in animal chow); CARHD 28D SAL AC=for 28 days mice (n=6-12) were administered carvedilol (2400 ppm in animal chow) and 15 minutes prior to measuring airway hyperresponsiveness, salbutamol was administered at a dose of […].
To measure airway hyperresponsiveness after 28 days, all mice except the CTRL (control) mice were challenged with ovalbumin and then all mice were anesthetized, tracheotomized, and connected to a Flexivent small animal ventilator to measure airway resistance (Raw) by the forced oscillation technique. To induce airway constriction, a solution containing 150 μg/mL of methacholine was infused using a syringe infusion pump. The methacholine infusion was started at 0.008 mL/min and its rate was doubled stepwise up to a maximum […]. […]

Assay [5] concerns asthmatic mice. Nature of the assay: BALF cell number and type (Example 11). The format is in vivo. Particulars: vs nontreated asthmatic mice. From the text: The same mice as described in Example 1 underwent bronchoalveolar lavage (BAL) to determine the total number and type of immune system cells in the lung. BAL Fluid (BALF) was irrigated and collected from the lungs of mice as previously described (Evans K L, Bond R A, Corry […]. Frequency dependence of respiratory system mechanics during induced constriction in a murine model of asthma. J Appl Physiol. 2003 January;94(1):245-52). […] The number of neutrophils was increased in nontreated asthmatic mice compared to mice that served as controls for chronic beta-blocker treatments. In comparison to their notable effects on airway responsiveness, the β-AR ligands tested had very little effect on BALF cellularity. […] FIG. 12 has 3 panels of cell number and type of cells from the bronchoalveolar lavage fluid of asthmatic mice treated acutely or chronically with beta adrenergic ligands. Cells were identified as eosinophils (black bars), macrophages (hatched bars), neutrophils (grey bars), and lymphocytes (white bars) by standard morphologic criteria. At least 200 cells were counted per cytospin preparation, and the absolute number of each cell type was calculated based on the volume of fluid recovered from the lavage. […] Data are expressed as mean ±SEM and are representative of 6-25 animals per group. #P<0.05 compared to NTX, *P<0.05 compared to control (ANOVA).

For assay [6], the system named is tracheas from asthmatic mice. Particulars: chronic treatment of asthmatic mice, excised tracheas; cited from earlier work.
In a further assay the test system is patients with CHF. Particulars: cited from earlier work.

β2-adrenergic receptor (Mus musculus, UniProt P18762), sequence (P18762 whole entry): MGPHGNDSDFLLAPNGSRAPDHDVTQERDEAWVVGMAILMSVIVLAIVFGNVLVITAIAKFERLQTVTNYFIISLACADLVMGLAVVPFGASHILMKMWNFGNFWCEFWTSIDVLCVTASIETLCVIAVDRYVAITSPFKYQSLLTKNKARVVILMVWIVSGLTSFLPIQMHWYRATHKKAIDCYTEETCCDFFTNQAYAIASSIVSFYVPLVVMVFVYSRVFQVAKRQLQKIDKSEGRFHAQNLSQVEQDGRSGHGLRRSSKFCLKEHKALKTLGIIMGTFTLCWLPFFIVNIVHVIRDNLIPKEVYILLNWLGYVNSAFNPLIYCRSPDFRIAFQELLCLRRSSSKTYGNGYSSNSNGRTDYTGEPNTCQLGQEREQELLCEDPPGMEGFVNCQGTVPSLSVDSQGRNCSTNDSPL

On to `COc1ccccc1OCCNCC(O)COc1cccc2[nH]c3ccccc3c12` (stereo not shown) [carvedilol], for which the “Decreased Raw” value in the assay with asthmatic mice [1] (15 minutes of administration) is reported as “no”; in the assay on asthmatic mice [1] (2 days of administration), “no”; in the assay on asthmatic mice [1] (28 days of administration), “yes”. Moreover, the “airway responsiveness to methacholine provocation (Raw)” value is given as “enhanced the airway responsiveness” in the assay on asthmatic mice [1] (asthmatic mice, acute: single intravenous bolus 15 minutes before methacholine) and “does reduce airway hyperresponsiveness; also recorded: reduced the responsiveness of asthmatic mice to methacholine provocation” in the assay with asthmatic mice [1] (asthmatic mice, chronic administration for 28 days). In the assay with asthmatic mice [1] (asthmatic mice, chronic administration), the “sensitivity of the responsiveness to methacholine” value was “shifts the sensitivity of the responsiveness to methacholine to lower concentrations”. Also, in the assay with asthmatic mice [1] (chronic administration, low and high doses in chow (FIGS. 8D-8G)), the “protection from airway hyperresponsiveness” value is listed as “providing protection from airway hyperresponsiveness”. In addition, on β2-adrenergic receptor [2] (15 Minutes drug treatment, lung membranes of asthmatic mice, mean±SEM), the Bmax is given as 86.3 ± 19.42 femtomoles of sites per milligram of protein. For the same compound, the βmax at β2-adrenergic receptor [2] (28 Days drug treatment, lung membranes of asthmatic mice, mean±SEM) is recorded as 904.1 ± 43.46 femtomoles of sites per milligram of protein. In addition, the “Increased β2AR density” value at β2-adrenergic receptor [2] (15 minutes of administration) is reported as “no”; at β2-adrenergic receptor [2] (28 days of administration) it was “showed an increase in receptor density at 28 days”; on β2-adrenergic receptor [2] (28 days of administration, listed as Carvedilol) it was “yes”; in the assay with β2-adrenergic receptor [3], “no”. Moreover, the “increase of the level of β2-adrenergic receptors over the non-treated mice” value on β2-adrenergic receptor [2] (chronic administration) is “over 10 fold”. In the assay with asthmatic mice [4], the “bronchoconstriction / airway hyperresponsiveness (Raw)” value is “higher bronchoconstriction than these treatments but less than the non-drug treated sensitized and challenged (NTX S/C) mice”. Further, the BALF cellularity entry in the assay on asthmatic mice [5] (acute treatment (15 minutes)) and in the assay on asthmatic mice [5] (chronic treatment (28 days)) was “had no effects on BALF cellularity” throughout. Further, the “effectiveness on tracheal contraction in response to methacholine (rank)” value in assay [6] is “followed by carvedilol”. Also, in the assay with patients with CHF, the “clinical outcome in congestive heart failure” value is “significant mortality reduction”.
